Reference: ChEMBL document CHEMBL1157064, “Homoisoflavonoids from the fibrous roots of Polygonatum odoratum with glucose uptake-stimulatory activity in 3T3-L1 adipocytes” (J Nat Prod, 2010)
Active and inactive are the calls of the source. The rule behind the calls is not given here.

What follows are compounds tested on 3T3-L1 (assay: Increase in insulin-stimulated [3H]2-deoxy-D-glucose uptake in mouse 3T3L1cells at 1 uM after 3 days by liquid scintillation counting relative to insulin).
Assay type: functional, cell-based

Row | SMILES | Activity
1 | Cc1c(O)c(C)c2c(c1O)C(=O)/C(=C/c1ccc(O)cc1)CO2 | Active
2 | O=C1/C(=C/c2ccc(O)cc2)COc2cc(O[C@@H]3O[C@H](CO)[C@@H](O)[C@H](O)[C@H]3O)cc(O)c21 | Active
3 | Cc1c(O)c(C)c2c(c1O)C(=O)[C@H](Cc1ccc(O)cc1)CO2 | Active
4 | COc1ccc(C[C@@H]2COc3c(OC)c(O)c(C)c(O)c3C2=O)cc1 | Active
5 | COc1ccc([C@@H]2CC(=O)c3c(O)cc(O[C@@H]4O[C@H](CO[C@@H]5O[C@@H](C)[C@H](O)[C@@H](O)[C@H]5O)[C@@H](O)[C@H](O)[C@H]4O)cc3O2)cc1O | Active
6 | COc1ccc(CC2COc3c(OC)c(O)c(C)c(O)c3C2=O)c(O)c1 (racemic) | Active
7 | COc1c(O[C@@H]2O[C@H](CO)[C@@H](O)[C@H](O)[C@H]2O)cc2occ(-c3ccc(O)cc3)c(=O)c2c1O | Active
8 | COc1ccc(C[C@@H]2COc3c(C)c(O)c(C)c(O)c3C2=O)cc1 | Active
9 | COc1ccc(CC2COc3c(C)c(O)c(C)c(O)c3C2=O)cc1O (racemic) | Active
10 | COc1c(O)c(C)c(O)c2c1OC[C@@H](Cc1ccc(O)cc1)C2=O | Active
11 | COc1ccc(CC2COc3c(C)c(O)c(C)c(O)c3C2=O)c(O)c1 (racemic) | Active
